13 molecules from PMC8510368, “Secondary Metabolites with Anti-Inflammatory Activities from One Actinobacteria Amycolatopsis taiwanensis” (Molecules, 2021) can be followed below.

Where two headings read alike, the source gives them in different places. Some results are limits rather than exact numbers.

Common to all, as to type: cell-based, mouse
Series [1] deals with LPS-activated NO production in RAW 264.7 macrophages. As to the kind of experiment: Inhibition of LPS-induced NO production (nitrite, Griess reagent assay). Particulars: for IC50: Mus musculus, read-out: IC50 NO; for NO inhibition (in words): LPS-induced NO production in RAW 264.7. The protocol:
(§1) Mouse macrophage cell line (RAW 264.7) was obtained from Bioresource Collection and Research Center (BCRC 60001) and cultured at 37 °C in Dulbecco’s Modified Eagle’s Medium (DMEM) supplemented with 10% fetal bovine serum (Gibco), 4.5 g/L glucose, 4 mM glutamine, penicillin (100 units/mL), and streptomycin (100 μg/mL) in a humidified atmosphere in a 5% CO2 incubator. The cells were treated with 10, 25, 50 μM natural products in the presence of 1 μg/mL LPS (lipopolysaccharide, Sigma-Aldrich, St. Louis, MO, USA) for 20 h. The concentration of NO in culture supernatants was determined as nitrite, a major stable product of NO, by Griess reagent assay, and cell viabilities were determined using the MTT assay as described previously.

Series [2] is described as follows: Cell viability, MTT assay. More on the design: concentration or dose not given beside the values. Particulars: mouse. Here is the method:
as §1

The next series concerns RAW 264.7 cells. As to the kind of experiment: Cell viability, MTT assay. More on the design: concentration or dose not given beside the values. The protocol: as §1
A further series relates to iNOS mRNA expression. The experiment in a line: RT-PCR analysis of LPS-induced iNOS mRNA expression. Conditions: LPS treatment.
Where [3] appears, read: RAW264.7, RAW 264.7 macrophages, 1 μg/mL LPS, 20 h, mean ± SEM (n = 4) of 3 independent experiments.
[4] abbreviates: RAW 264.7 macrophage cells, RAW 264.7, MTT assay, read-out: cell viability.
Where [5] appears, read: RAW 264.7 macrophage cells, RAW 264.7 macrophages, MTT assay, mean ± SEM, read-out: Cell Viability (% Control).

With `CC(O)c1ccc2c(c1)CCC1[C@](C)(C(=O)O)CCC[C@]21C` (relative stereo) [Compound 5, (1R*,4aS*)-7-(1-hydroxyethyl)-1,4a-dimethyl-1,2,3,4,4a,9,10,10a-octahydrophenanthrene-1-carboxylic acid], the IC50 in series [1] (setting [3]) amounted to 12.3 ± 4.97 µM. The values for the viability at 20 h in series [2] (setting [4]) and in series [2] (setting [5]) were above 80% and 82.2 ± 3.21%, respectively. Besides, the “cell viability” value in the series on RAW 264.7 cells (RAW 264.7, MTT assay) is recorded as above 95%. Also, in the series with iNOS mRNA expression, the “effect on LPS-increased iNOS mRNA expression” value is recorded as “inhibited this increase in a concentration-dependent manner”.

As for `C[C@@H]1[C@@H](O)CC2C(C)(C)C3CC21CC[C@@]3(C)O` (relative stereo) [Compound 10, (2S*,3S*,6R*)-3,6,8,8-tetramethyloctahydro-1H-3a,7-methanoazulene-2,6-diol], the IC50 in series [1] (setting [3]) is above 100 µM. For the same molecule, in series [2] (setting [5]), the viability at 20 h was determined as 89.5 ± 2.15%.

For `CC(=O)OCC(C)(O)C1CCC(C)C12CC=C(C)CC2` (stereo not drawn) [Compound 2, 12-acetoxy-11-hydroxyacora-3-ene], the “NO inhibition (in words)” value in series [1] was “less effective NO inhibition”. Moreover, the IC50 in series [1] (setting [3]) was found to be 34.2 ± 1.97 µM. In addition, the viability at 20 h in series [2] (setting [5]) is 99.6 ± 5.53%.

Take `CC(C)c1cc2c(c(O)c1O)[C@@]1(C)CCC(=O)C(C)(C)C1[C@@H](O)[C@H]2O` (stereo partly drawn) [Compound 3, 6α,7α,11-trihydroxy-3-oxoferrugiol]: the “NO inhibition (in words)” value in series [1] is “showed inhibitory activities”. For the same molecule, the IC50 in series [1] (RAW264.7, 20 h) was 17.5 ± 1.85 µM. In addition, the viability at 20 h was 95.5 ± 3.39% in series [2] (Cell Viability (% Control)) and above 80% in series [2] (cell viability). In addition, the “cell viability” value in the series with RAW 264.7 cells (mouse, 20 h) is above 95%. Further, the “effect on LPS-increased iNOS mRNA expression” value with iNOS mRNA expression is on record as “inhibited this increase in a concentration-dependent manner”.

Turning to `CC(C)C1=C(O)C(=O)C2=C(CCC3C(C)(C)[C@@H](O)CC[C@]23C)C1=O` (stereo partly drawn) [Compound 4, amycolataiwanensin D], the IC50 in series [1] (setting [3]) was determined as 24.8 ± 1.63 µM. Further, the viability at 20 h in series [2] (setting [5]) turned out to be 91.1 ± 4.22%.

Turning to `CC1(C)CCC2C(=CC1=O)CCC1C(C)(C(=O)O)CCCC21C` (stereo not drawn) [Compound 6, 12(13→15)abeo-13-oxo-8(14)-abietene-18-oic acid], in series [1] (setting [3]), the IC50 was 24.8 ± 12.9 µM. The viability at 20 h in series [2] (setting [4]) was below 80%; in series [2] (setting [5]), 76.3 ± 5.48%.

As for `COc1cc(CCCOC(C)=O)cc(OC)c1O` [Compound 7, amycolataiwanensin G], the IC50 in series [1] (setting [3]) was 12.8 ± 4.82 µM. In addition, the viability at 20 h in series [2] (setting [4]) is below 80%; in series [2] (setting [5]), 56.3 ± 3.91%.

On to `CC(C)=CCCC1(C)C=Cc2cc(-c3ccc(O)cc3)cc(O)c2O1` (stereo not drawn) [Compound 8, amycolataiwanensin H], for which the IC50 in series [1] (setting [3]) came to 17.8 ± 1.13 µM. Also, the viability at 20 h in series [2] (setting [4]) was above 80%; in series [2] (setting [5]), 95.9 ± 1.32%. In the series on RAW 264.7 cells (RAW 264.7, MTT assay), the “cell viability” value is recorded as above 95%. In addition, the “effect on LPS-increased iNOS mRNA expression” value in the series on iNOS mRNA expression was “inhibited this increase in a concentration-dependent manner”.

On to `CC1(C)CCc2cc(-c3ccc(O)cc3)cc(O)c2O1` [Compound 9, 6-(4-hydroxyphenyl)-2,2-dimethylchroman-8-ol], for which the IC50 in series [1] (setting [3]) was determined as 13.3 ± 0.51 µM. The viability at 20 h is above 80% in series [2] (setting [4]) and 98 ± 1.53% in series [2] (setting [5]). Moreover, the “cell viability” value in the series with RAW 264.7 cells (RAW 264.7, MTT assay) is recorded as above 95%. The “effect on LPS-increased iNOS mRNA expression” value in the series on iNOS mRNA expression is “inhibited this increase in a concentration-dependent manner”.

Turning to `CC(O)c1ccc2c(c1)CCC1[C@](C)(C(=O)O)CCC[C@]21C` (stereo partly drawn) [E], in series [1], the “NO inhibition (in words)” value is reported as “showed inhibitory activities”.

Regarding `CC(C)=CCCC1(C)C=Cc2cc(-c3ccc(O)cc3)cc(O)c2O1` (stereo not drawn) [H], the “NO inhibition (in words)” value in series [1] is “showed inhibitory activities”.

Consider `CC1(C)CCc2cc(-c3ccc(O)cc3)cc(O)c2O1` [I], for which the “NO inhibition (in words)” value in series [1] is “showed inhibitory activities”.

As to `O=c1c(O)c(-c2ccc(O)c(O)c2)oc2cc(O)cc(O)c12` [Quercetin, quercetin, reference compound], the IC50 in series [1] (setting [3]) was 35.9 ± 2.34 µM. The viability at 20 h in series [2] (setting [5]) was 94.1 ± 1.32%.
